Article PMC8523698, “Preclinical characterization of an intravenous coronavirus 3CL protease inhibitor for the potential treatment of COVID19” (Nature Communications, 2021)
Several values for one entry are separate records, joined by “and”; a condition that tells them apart may be missing. Equal values may be shown once. Read-outs that look alike come from different tables or passages of the source.

How the values were obtained:
[1] = molecular target: CYP2D6 (Homo sapiens, UniProt P10635); assay: Reversible CYP inhibition in human liver microsomes; conditions: human, microsomes, pH 7.4, Percent of Control Activity; for activity at 0.01 µM: CYP 2D6, 0.01 µM; for activity at 0.158 µM: CYP 2D6, 0.158 µM; for activity at 0.398 µM: CYP 2D6, 0.398 µM; for activity at 1 µM: CYP 2D6, 1 µM; for activity at 15.8 µM: CYP 2D6, 15.8 µM; for activity at 39.8 µM: CYP 2D6, 39.8 µM
Sequence of CYP2D6 (P10635 whole entry): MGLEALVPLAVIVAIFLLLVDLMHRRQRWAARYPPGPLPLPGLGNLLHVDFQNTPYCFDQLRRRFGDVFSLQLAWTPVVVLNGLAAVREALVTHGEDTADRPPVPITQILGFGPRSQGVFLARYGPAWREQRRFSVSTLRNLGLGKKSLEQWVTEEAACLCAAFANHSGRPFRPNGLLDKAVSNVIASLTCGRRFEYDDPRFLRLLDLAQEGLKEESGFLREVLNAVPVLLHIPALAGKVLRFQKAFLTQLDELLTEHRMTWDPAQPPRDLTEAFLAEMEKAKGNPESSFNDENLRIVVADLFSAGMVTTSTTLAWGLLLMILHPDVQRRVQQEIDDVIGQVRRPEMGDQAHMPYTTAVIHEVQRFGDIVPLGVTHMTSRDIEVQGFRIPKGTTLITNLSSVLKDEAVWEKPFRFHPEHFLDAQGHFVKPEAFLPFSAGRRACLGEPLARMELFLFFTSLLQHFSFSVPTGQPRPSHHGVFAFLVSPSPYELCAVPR

[2] = molecular target: hERG channel (Homo sapiens, UniProt Q12809); assay: hERG potassium channel current assay
Sequence of hERG channel (Q12809 whole entry): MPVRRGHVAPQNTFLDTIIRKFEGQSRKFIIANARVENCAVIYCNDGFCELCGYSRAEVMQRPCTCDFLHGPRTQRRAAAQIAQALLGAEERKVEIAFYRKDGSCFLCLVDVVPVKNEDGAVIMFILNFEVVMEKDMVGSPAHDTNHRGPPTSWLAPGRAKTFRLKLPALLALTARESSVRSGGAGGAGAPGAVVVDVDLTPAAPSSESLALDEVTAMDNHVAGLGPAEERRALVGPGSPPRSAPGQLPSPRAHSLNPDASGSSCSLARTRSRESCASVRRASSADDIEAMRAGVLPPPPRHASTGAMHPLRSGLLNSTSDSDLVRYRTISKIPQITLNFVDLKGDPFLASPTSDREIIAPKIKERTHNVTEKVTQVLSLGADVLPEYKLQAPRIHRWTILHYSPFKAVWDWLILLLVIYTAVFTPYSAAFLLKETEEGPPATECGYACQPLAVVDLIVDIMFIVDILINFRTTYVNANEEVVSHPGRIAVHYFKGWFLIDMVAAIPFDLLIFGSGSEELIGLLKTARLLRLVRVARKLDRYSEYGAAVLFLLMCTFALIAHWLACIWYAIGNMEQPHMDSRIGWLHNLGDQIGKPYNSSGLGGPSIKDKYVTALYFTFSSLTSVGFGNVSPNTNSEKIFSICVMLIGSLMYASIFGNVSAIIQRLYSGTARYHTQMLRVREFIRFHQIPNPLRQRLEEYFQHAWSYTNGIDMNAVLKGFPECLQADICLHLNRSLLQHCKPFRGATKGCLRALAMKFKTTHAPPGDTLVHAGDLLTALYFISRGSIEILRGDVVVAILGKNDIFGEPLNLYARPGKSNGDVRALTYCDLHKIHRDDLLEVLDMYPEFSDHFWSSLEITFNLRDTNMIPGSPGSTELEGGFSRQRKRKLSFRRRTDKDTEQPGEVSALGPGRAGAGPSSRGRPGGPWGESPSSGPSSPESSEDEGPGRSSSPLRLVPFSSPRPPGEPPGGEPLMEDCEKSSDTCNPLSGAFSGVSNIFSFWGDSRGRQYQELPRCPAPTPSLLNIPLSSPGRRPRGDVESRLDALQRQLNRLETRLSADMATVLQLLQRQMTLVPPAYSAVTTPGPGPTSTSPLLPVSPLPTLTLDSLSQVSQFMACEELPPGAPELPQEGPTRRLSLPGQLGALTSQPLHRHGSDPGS

[3] = system: Salmonella typhimurium strains and E. coli strain WP2 uvrA; assay: Bacterial reverse mutation assay; conditions: with and without metabolic activation
[4] = system: MRC-5 cells; assay: Cytotoxicity in MRC-5 cells; conditions: MRC-5, plus 0.5 uM efflux inhibitor; one value per run date (N=3)
[5] = Secondary/off-target pharmacology panel (Eurofins Cerep); conditions: assessed at 100 µM
[6] = molecular target: T1, CYP2C8 (Homo sapiens, UniProt P10632); assay: Reversible CYP inhibition in human liver microsomes; conditions: for activity at 0.01 µM / activity at 0.158 µM / activity at 0.398 µM / activity at 1 µM / activity at 15.8 µM / activity at 39.8 µM / activity at 100 µM: human, microsomes, pH 7.4, Percent of Control Activity
T1 sequence (P10632 1-490): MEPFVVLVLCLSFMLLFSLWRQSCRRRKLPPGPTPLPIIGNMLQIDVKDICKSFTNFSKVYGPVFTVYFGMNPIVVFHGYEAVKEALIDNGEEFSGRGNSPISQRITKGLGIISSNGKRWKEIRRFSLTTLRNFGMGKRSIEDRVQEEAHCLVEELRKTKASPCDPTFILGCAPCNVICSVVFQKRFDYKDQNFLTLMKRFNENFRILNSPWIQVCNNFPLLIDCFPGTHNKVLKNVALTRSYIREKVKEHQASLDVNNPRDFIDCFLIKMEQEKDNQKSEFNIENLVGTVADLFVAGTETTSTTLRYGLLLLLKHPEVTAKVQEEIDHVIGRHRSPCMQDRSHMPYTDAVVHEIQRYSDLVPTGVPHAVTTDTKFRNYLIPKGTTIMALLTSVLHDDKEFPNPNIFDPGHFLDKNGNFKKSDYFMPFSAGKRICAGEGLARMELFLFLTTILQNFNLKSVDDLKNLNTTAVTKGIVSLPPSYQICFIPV

## COc1cccc2[nH]c(C(=O)N[C@@H](CC(C)C)C(=O)N[C@@H](C[C@@H]3CCNC3=O)C(=O)COP(=O)(O)O)cc12 [PF-07304814]
[1]; 30-Minute Preincubation
  activity at 0.01 µM: 101%
  activity at 0.158 µM: 103%
  activity at 0.398 µM: 103%
  activity at 1 µM: 104%
  activity at 15.8 µM: 102%
  activity at 39.8 µM: 102%
[1]; Zero-Minute Preincubation
  activity at 0.01 µM: 99.1%
  activity at 0.158 µM: 102%
  activity at 0.398 µM: 101%
  activity at 1 µM: 98.7%
  activity at 15.8 µM: 106%
  activity at 39.8 µM: 102%
[1]; CYP 2D6, 100 µM, 30-Minute Preincubation
  activity at 100 µM: 102%
[2]; 300 µM vs projected Cmax at projected human efficacious dose
  hERG margin in reference to projected unbound human Cmax: 1,770 fold
[2]; human
  concentration up to which hERG current amplitude was not inhibited: 300 µM
[3]
  bacterial reverse mutation assay result: negative
[4]
  CC50: > 100 µM
[5]
  secondary (off-target) pharmacology: minimal potential for secondary (off-target) pharmacology
[6]
  IC50: > 100 µM
[6]; Amodiaquine N-dealkylation, T30
  IC50: > 100 µM
[6]; CYP 2C8, 0.01 µM, 30-Minute Preincubation, 0.01 µM
  Percent of Control Activity: 100.2%
[6]; CYP 2C8, 0.01 µM, Zero-Minute Preincubation, 0.01 µM
  Percent of Control Activity: 96.2% and 97.6%
[6]; CYP 2C8, 0.158 µM, 30-Minute Preincubation, 0.158 µM
  Percent of Control Activity: 96.6% and 95.8%
[6]; CYP 2C8, 0.158 µM, Zero-Minute Preincubation, 0.158 µM
  Percent of Control Activity: 91.2% and 95.2%
[6]; CYP 2C8, 0.398 µM, 30-Minute Preincubation, 0.398 µM
  Percent of Control Activity: 95.5% and 95.0%
[6]; CYP 2C8, 0.398 µM, Zero-Minute Preincubation, 0.398 µM
  Percent of Control Activity: 94.0% and 94.9%
[6]; CYP 2C8, 1 µM, 30-Minute Preincubation, 1 µM
  Percent of Control Activity: 96.0% and 95.0%
[6]; CYP 2C8, 1 µM, Zero-Minute Preincubation, 1 µM
  Percent of Control Activity: 93.7%
[6]; CYP 2C8, 15.8 µM, 30-Minute Preincubation, 15.8 µM
  Percent of Control Activity: 96.2% and 94.8%
[6]; CYP 2C8, 15.8 µM, Zero-Minute Preincubation, 15.8 µM
  Percent of Control Activity: 94.0% and 95.0%
[6]; CYP 2C8, 39.8 µM, 30-Minute Preincubation, 39.8 µM
  Percent of Control Activity: 94.8% and 91.6%
[6]; CYP 2C8, 39.8 µM, Zero-Minute Preincubation, 39.8 µM
  Percent of Control Activity: 94.6%
[6]; CYP 2C8, 100 µM, 30-Minute Preincubation, 100 µM
  Percent of Control Activity: 96.4%
[6]; CYP 2C8, 100 µM, Zero-Minute Preincubation, 100 µM
  Percent of Control Activity: 88.3%
[6]; CYP 2C8, 0.01 µM, 30-Minute Preincubation
  activity at 0.01 µM: 94.3%
[6]; CYP 2C8, 0.01 µM, Zero-Minute Preincubation
  activity at 0.01 µM: 95.1%
[6]; CYP 2C8, 0.158 µM, 30-Minute Preincubation
  activity at 0.158 µM: 90.5%
[6]; CYP 2C8, 0.158 µM, Zero-Minute Preincubation
  activity at 0.158 µM: 91.3%
[6]; CYP 2C8, 0.398 µM, 30-Minute Preincubation
  activity at 0.398 µM: 92.1%
[6]; CYP 2C8, 0.398 µM, Zero-Minute Preincubation
  activity at 0.398 µM: 95.4%
[6]; CYP 2C8, 1 µM, 30-Minute Preincubation
  activity at 1 µM: 91.8%
[6]; CYP 2C8, 1 µM, Zero-Minute Preincubation
  activity at 1 µM: 92.1%
[6]; CYP 2C8, 15.8 µM, 30-Minute Preincubation
  activity at 15.8 µM: 88.9%
[6]; CYP 2C8, 15.8 µM, Zero-Minute Preincubation
  activity at 15.8 µM: 89.3%
[6]; CYP 2C8, 39.8 µM, 30-Minute Preincubation
  activity at 39.8 µM: 88.9%
[6]; CYP 2C8, 39.8 µM, Zero-Minute Preincubation
  activity at 39.8 µM: 87%
[6]; CYP 2C8, 100 µM, 30-Minute Preincubation
  activity at 100 µM: 89.5%
[6]; CYP 2C8, 100 µM, Zero-Minute Preincubation
  activity at 100 µM: 85.6%
